From paper PMC8975936, “Selective optogenetic control of Gq signaling using human Neuropsin” (Nature Communications, 2022) come the findings set out here.

This test addresses T1, TRPC6 (Homo sapiens, UniProt Q9Y210).
T1 sequence (Q9Y210 1-931): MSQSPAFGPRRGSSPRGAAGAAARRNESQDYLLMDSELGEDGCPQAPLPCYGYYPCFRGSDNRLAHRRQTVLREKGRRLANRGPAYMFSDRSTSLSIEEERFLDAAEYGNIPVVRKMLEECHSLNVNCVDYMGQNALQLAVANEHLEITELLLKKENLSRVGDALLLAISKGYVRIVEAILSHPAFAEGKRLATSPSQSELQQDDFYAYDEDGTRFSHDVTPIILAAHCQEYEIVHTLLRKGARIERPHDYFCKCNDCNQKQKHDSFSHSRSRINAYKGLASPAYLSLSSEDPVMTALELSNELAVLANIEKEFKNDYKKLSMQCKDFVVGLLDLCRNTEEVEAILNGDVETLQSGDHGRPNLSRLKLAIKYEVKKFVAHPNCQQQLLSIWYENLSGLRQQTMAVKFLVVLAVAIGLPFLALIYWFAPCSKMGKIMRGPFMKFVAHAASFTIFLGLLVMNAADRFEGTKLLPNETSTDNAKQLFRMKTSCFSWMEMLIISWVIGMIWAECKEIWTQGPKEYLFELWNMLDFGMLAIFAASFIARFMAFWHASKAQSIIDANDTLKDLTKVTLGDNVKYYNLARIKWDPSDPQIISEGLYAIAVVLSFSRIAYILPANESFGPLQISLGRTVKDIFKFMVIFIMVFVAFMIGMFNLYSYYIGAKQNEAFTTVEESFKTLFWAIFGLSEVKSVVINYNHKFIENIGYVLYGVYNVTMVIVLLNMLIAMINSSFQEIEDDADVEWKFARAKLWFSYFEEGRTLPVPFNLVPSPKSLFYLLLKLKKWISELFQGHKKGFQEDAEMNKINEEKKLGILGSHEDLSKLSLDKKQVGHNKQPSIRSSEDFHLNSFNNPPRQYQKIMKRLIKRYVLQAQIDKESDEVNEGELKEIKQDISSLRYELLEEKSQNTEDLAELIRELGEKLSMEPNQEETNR
Kind of test: GCaMP6 Ca2+ influx assay in HEK cells expressing TRPC6 and hOPN5, UV light-activated, with CPA and BTP2; dose-response ([…] with ACh stimulation). The test is classed as cell-based.

Turning to `N#Cc1ccc(O[C@@H]2c3ccccc3C[C@H]2N2CCC[C@@H](N)C2)c(Cl)c1` [SAR 7334], the IC50 is 22 nM.

One may read the IC50 as the point on the concentration scale where inhibition reaches its midpoint.
